Measured values: US10570179B2, “Substituted urea depsipeptide analogs as activators of the CLPP endopeptidase” (priority 2016, dated 2020)
≈ marks a conversion by molar mass, not a printed value. Where two headings read alike, the source gives them in different places. Numbered stars: 1 amine (or outer) side, 2 acyl side, 3 side chain; on linkers, the order of the positions; unused ones are H or OH. Bridge positions count the residues as written; N and C are the ends. Square brackets hold non-standard residues; d marks the D form. Peptide text beside a SMILES is read from it. * marks the point of attachment. Phe(3-Me) = Cc1cccc(C[C@H](N)C(=O)O)c1; Pro(4S-Me) = C[C@@H]1CN[C@H](C(=O)O)C1; Pro(4R-Me) = C[C@H]1CN[C@H](C(=O)O)C1; Hyp = O=C(O)[C@@H]1C[C@@H](O)CN1; NH(4-Cl-phenyl) = Clc1ccc(N*)cc1; NH(4-Et-phenyl) = CCc1ccc(N*)cc1; aThr = C[C@H](O)[C@H](N)C(=O)O; Pip = O=C(O)[C@@H]1CCCCN1; CO = O=C([*:1])[*:2]

How the values were obtained:
[1] = target: T1, S. aureus ClpP (Sa-ClpP) (Staphylococcus aureus, UniProt Q2G036); assay: Casein-BODIPY digestion assay (ClpP activation); format: biochemical
T1 construct: made in house; host or cells: E. coli BL21 (DE3)
Procedure: The compounds were assayed in a casein digestion assay in order to determine their effect on ClpP activation. Briefly, the assay was carried out using S. aureus ClpP (“Sa-ClpP”) overexpressed in E. coli BL21 (DE3) and purified in a two-step process. Purity of the protein was assessed through SDS PAGE analysis. EC50 evaluations were conducted in triplicate in a 20 μl assay format using a method adapted from Maurizi et al. (Methods Enzymol. (1994) 244:314-331). Each well contained 10 μM saClpP, 25 μg/ml BODIPY FL casein (Invitrogen Corporation, San Diego, Calif.), and test compound in concentrations ranging between 0-1000 μM in assay buffer (50 mM Tris pH 8, 200 mM KCl, and 1 mM TCEP). The reaction took place at 37° C. Fluorescence (excitation 485 nm; emission 528 nm) was measured in five minute intervals over a 45 min period using a BioTek HT fluorescence microplate reader (BioTek Instruments, Inc., Winooski, Vt.). Velocity of each reaction was calculated and data was fit to a dose response curve using GraphPad Prism® software (GraphPad Software, Inc., La Jolla, Calif.). EC50 is the effective concentration of compound which causes 50% activation of S. aureus ClpP in the foregoing BODIPY FL casein assay.
Alternatively, the assay was carried out using EnzCheck Protease Assay (Molecular Probes, Catalog # E6638). The assay was performed in black 384 well, flat bottom, low volume plates (Greiner Bio-One, Monroe, N.C., catalog #784076). 10 μL of Tris.HCl buffer, pH 8.0 with 0.01% Triton X-100 was pipetted into each well using a Well-Mate (Thermo Scientific, Waltham, Mass.). 0.4 μL test compounds or controls (2% DMSO v/v) were added to each well using a Biomek FX liquid handling robot (Beckman Coulter, Indianapolis, Ind.). After addition of test compounds and controls, 10 μL of master mix containing 2 μM Sa-ClpP and 2 μM substrate (Bodipy-FL labeled casein) in Tris.HCl buffer, pH 8.0 with 0.01% (v/v) Triton X-100, was pipetted into each well. All assays were performed in triplicate, under linear velocity conditions. Increase in fluorescent signal following activation of Sa-ClpP by test compounds and controls was measured over time period of 30 mins using filters with excitation at 485±15 nm and emission at 520±25 nm on a PHERAstar FS Multilabel reader (BMG, Cary, N.C.). Instrument gains and enzyme linear velocity conditions were determined and validated using ADEP4, a known Sa-ClpP activator. Data analysis was done by measuring rate of casein degradation over time (slopes). Computed degradation rates (slopes) were normalized to positive (ADEP4) or negative (DMSO) controls. Using nonlinear regression curve fitting EC50 values and % activation were determined using the equation “log [agonist] vs. Response-variable slope (four parameters)-symmetrical” in the program Prism 6 (GraphPad Software, La Jolla, Calif. USA, www.graphpad.com).

[2] = test system: S. aureus ΔClpP; assay: Minimal inhibitory concentration, microbroth dilution; format: cell-based, Staphylococcus aureus; conditions: MIC; ClpP inactivated
Procedure: (§1) Minimal inhibitory concentrations (“MICs”) were determined using the microbroth dilution method according to Clinical Laboratory Standards Institute (CLSI; National, C.F. C. L. S., Methods for Dilution Antimicrobial Susceptibility Tests for Bacteria Grow aerobically-Seventh Edition: Approved Standard M7-A7, CLSI, Wayne, Pa., USA, 2008) and were read by visual inspection. Two fold serial dilutions of test compound in 100 μL of the appropriate broth media were first prepared in 96-well round bottom microtiter plates (Nalgene Nunc International, Rochester, N.Y., USA). An equivalent volume (100 μL) of bacterial broth inocula containing approximately 10^5 bacterial cfu/mL was added to each well to give final concentrations of test compound starting at 200 μM. The plates were then incubated aerobically at 37° C. All strains were incubated overnight. After incubations, in all cases the MIC was recorded as the lowest concentration of drug that prevented bacterial growth. The bacterial strains for which MIC was determined as described in Table 4.

[3] = test system: E. faecails; assay: as above; format: cell-based; conditions: Enterococcus faecalis
Procedure: as §1

[4] = test system: MRSA NRS70; assay: as above; format: cell-based; conditions: Staphylococcus aureus
Procedure: as §1

[5] = test system: S. aureus ATCC 29213; assay: as above; format: cell-based; conditions: Staphylococcus aureus
Procedure: as §1

[6] = test system: S. aureus USA 300; assay: as above; format: cell-based; conditions: Staphylococcus aureus
Procedure: as §1

[7] = read-out: Minimal Inhibitory Concentrations (μM) E. faecails, MIC
[8] = read-out: Minimal Inhibitory Concentrations (μM) MRSA NRS70, MIC
[9] = ATCC29213, read-out: Minimal Inhibitory Concentrations (μM) S. aureus ATCC 29213, MIC
[10] = USA300, read-out: Minimal Inhibitory Concentrations (μM) S. aureus USA 300, MIC

T1 sequence (Q2G036 whole entry): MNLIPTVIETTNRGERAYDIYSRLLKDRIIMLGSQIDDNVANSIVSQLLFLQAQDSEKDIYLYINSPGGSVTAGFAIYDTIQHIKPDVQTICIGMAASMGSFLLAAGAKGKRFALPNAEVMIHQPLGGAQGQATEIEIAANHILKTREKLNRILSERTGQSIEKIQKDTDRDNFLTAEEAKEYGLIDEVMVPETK

Row | SMILES | EC50 [1] [nM] | Minimal Inhibitory Concentrations (μM) S. aureus ΔClpP [2] [µM] | MIC [3, 7] [µM] | MIC [4, 8] [µM] | MIC [5, 9] [µM] | MIC [6, 10] [µM] | MIC ([3]; MIC, read-out: Minimal Inhibitory Concentrations (μM) E. faecails) [µM] | MIC ([4]; MIC, read-out: Minimal Inhibitory Concentrations (μM) MRSA NRS70) [µM] | MIC ([5]; ATCC29213, MIC, read-out: Minimal Inhibitory Concentrations (μM) S. aureus ATCC 29213) [µM] | MIC ([6]; USA300, MIC, read-out: Minimal Inhibitory Concentrations (μM) S. aureus USA 300) [µM]
1 | Cc1cccc(C[C@H](NC(=O)Nc2ccc(Cl)cc2)C(=O)N[C@H]2COC(=O)[C@@H]3C[C@H](C)CN3C(=O)[C@H](C)NC(=O)[C@@H]3CCCCN3C(=O)[C@@H]3CCCN3C2=O)c1 [Compound 53, (S)-2-(3-(4-CHLOROPHENYL)UREIDO)-N-((2S,6S,8AS,14AS,20S,23AS)-2,6-DIMETHYL-5,8,14,19,23-PENTAOXOOCTADECAHYDRO-1H,5H,14H,19H-PYRIDO[2,1-I]DIPYRROLO[2,1-C:2′,1′-L][1]OXA[4,7,10,13]TETRAAZACYCLOHEXADECIN-20-YL)-3-(M-TOLYL)PROPANAMIDE] | 670 ± 300 | >20 | 5 (≈ 3.96 µg/mL) | 1.25 (≈ 0.99 µg/mL) | 1.25 (≈ 0.99 µg/mL) | 2.5 (≈ 1.98 µg/mL) | – | – | – | –
2 | CCc1ccc(NC(=O)N[C@@H](Cc2cccc(C)c2)C(=O)N[C@@H]2C(=O)N3C[C@H](O)C[C@H]3C(=O)N3CCCC[C@H]3C(=O)N[C@@H](C)C(=O)N3C[C@@H](C)C[C@H]3C(=O)O[C@H]2C)cc1 [Compound 65, (S)-2-(3-(4-ETHYLPHENYL)UREIDO)-N-((2S,6S,8AS,14AS,16R,20S,21S,23AS)-16-HYDROXY-2,6,21-TRIMETHYL-5,8,14,19,23-PENTAOXOOCTADECAHYDRO-1H,5H,14H,19H-PYRIDO[2,1-I]DIPYRROLO[2,1-C:2′,1′-L][1]OXA[4,7,10,13]TETRAAZACYCLOHEXADECIN-20-YL)-3-(M-TOLYL)PROPANAMIDE] ({NH(4-Et-phenyl)-CO}-[Phe(3-Me)][aThr][Hyp][Pip]A[Pro(4S-Me)]; ester 2-C) | 410 ± 100 | >20 | – | – | – | – | 1.25 (≈ 1.02 µg/mL) | 0.156 (≈ 0.127 µg/mL) | 0.313 (≈ 0.255 µg/mL) | 0.156 (≈ 0.127 µg/mL)
3 | Cc1cccc(C[C@H](NC(=O)Nc2ccc(Cl)cc2)C(=O)N[C@@H]2C(=O)N3C[C@H](O)C[C@H]3C(=O)N3CCCC[C@H]3C(=O)N[C@@H](C)C(=O)N3C[C@@H](C)C[C@H]3C(=O)O[C@H]2C)c1 [Compound 66, (S)-2-(3-(4-CHLOROPHENYL)UREIDO)-N-((2S,6S,8AS,14AS,16R,20S,21S,23AS)-16-HYDROXY-2,6,21-TRIMETHYL-5,8,14,19,23-PENTAOXOOCTADECAHYDRO-1H,5H,14H,19H-PYRIDO[2,1-I]DIPYRROLO[2,1-C:2′,1′-L][1]OXA[4,7,10,13]TETRAAZACYCLOHEXADECIN-20-YL)-3-(M-TOLYL)PROPANAMIDE] ({NH(4-Cl-phenyl)-CO}-[Phe(3-Me)][aThr][Hyp][Pip]A[Pro(4S-Me)]; ester 2-C) | 160 ± 100 | >20 | 1.25 (≈ 1.03 µg/mL) | 1.25 (≈ 1.03 µg/mL) | 0.625 (≈ 0.514 µg/mL) | 0.313 (≈ 0.257 µg/mL) | – | – | – | –
4 | Cc1cccc(C[C@H](NC(=O)Nc2ccc(Cl)cc2)C(=O)N[C@@H]2C(=O)N3C[C@H](O)C[C@H]3C(=O)N3CCCC[C@H]3C(=O)N[C@@H](C)C(=O)N3C[C@H](C)C[C@H]3C(=O)O[C@H]2C)c1 [Compound 61, (S)-2-(3-(4-CHLOROPHENYL)UREIDO)-N-((2R,6S,8AS,14AS,16R,20S,21S,23AS)-16-HYDROXY-2,6,21-TRIMETHYL-5,8,14,19,23-PENTAOXOOCTADECAHYDRO-1H,5H,14H,19H-PYRIDO[2,1-I]DIPYRROLO[2,1-C:2′,1′-L][1]OXA[4,7,10,13]TETRAAZACYCLOHEXADECIN-20-YL)-3-(M-TOLYL)PROPANAMIDE] ({NH(4-Cl-phenyl)-CO}-[Phe(3-Me)][aThr][Hyp][Pip]A[Pro(4R-Me)]; ester 2-C) | 270 ± 100 | >20 | 2.5 (≈ 2.06 µg/mL) | 0.156 (≈ 0.128 µg/mL) | 0.156 (≈ 0.128 µg/mL) | 0.156 (≈ 0.128 µg/mL) | – | – | – | –
